Measurements as given in US7981903B2, “2-[2-{phenylamino}-1H-pyrrolo[2,3-D]pyrimidin-4-yl)amino] benzamide derivatives as IGF-1R inhibitors for the treatment of cancer” (GlaxoSmithKline LLC, priority 2007, dated 2011).

Assays:
ALK = ALK (Homo sapiens, UniProt Q9UM73); experiment: ALK enzyme assay (HTRF); format: biochemical; details: 0.25 nM ALK, 15.0 μM ATP, values given as pIC50 category
Method in brief: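 Final compound range 0.00017 to 10 μM (twelve 1:3 dilutions). Kinase reaction with ATP and biotinylated synthetic peptide runs 120 min at 20° C, stopped with EDTA; phosphotyrosine detected by HTRF after 60 min. Inhibition referenced to DMSO (1%) and EDTA (0.1 M) controls, curve-fitted.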

NCI-H929 = experiment: Inhibition of cell proliferation (CellTiter-Glo or InCell analyzer), NCI-H929; format: cell-based; details: Homo sapiens, 72 h / 3 days, values given as IC50 category
Method in brief: In one

Colo205 = experiment: Inhibition of cell proliferation (CellTiter-Glo or InCell analyzer), Colo205; format: cell-based; details: Homo sapiens, COLO 205, 72 h / 3 days, values given as IC50 category
Method in brief: In one

[1] = biological target: T1, NIH-3T3 cells overexpressing human IGF-1R (Homo sapiens, UniProt P08069); experiment: IGF-1R cellular autophosphorylation (DELFIA); format: cell-based
T1 construct: expressed in transfected cells; host or cells: NIH-3T3 (mouse fibroblasts)
Method in brief: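 Receptor autophosphorylation measured by DELFIA, capturing IGF-1R or IRβ and detecting with europium anti-pTyr, reported as percent of IGF-1- or insulin-stimulated signal. Compounds (30 uM to 1.5 nM) added 2 h before ligand, then 15 min stimulation (IGF-1 30 ng/ml or insulin 3 ug/ml).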

Sequence of ALK (Q9UM73 19-1620): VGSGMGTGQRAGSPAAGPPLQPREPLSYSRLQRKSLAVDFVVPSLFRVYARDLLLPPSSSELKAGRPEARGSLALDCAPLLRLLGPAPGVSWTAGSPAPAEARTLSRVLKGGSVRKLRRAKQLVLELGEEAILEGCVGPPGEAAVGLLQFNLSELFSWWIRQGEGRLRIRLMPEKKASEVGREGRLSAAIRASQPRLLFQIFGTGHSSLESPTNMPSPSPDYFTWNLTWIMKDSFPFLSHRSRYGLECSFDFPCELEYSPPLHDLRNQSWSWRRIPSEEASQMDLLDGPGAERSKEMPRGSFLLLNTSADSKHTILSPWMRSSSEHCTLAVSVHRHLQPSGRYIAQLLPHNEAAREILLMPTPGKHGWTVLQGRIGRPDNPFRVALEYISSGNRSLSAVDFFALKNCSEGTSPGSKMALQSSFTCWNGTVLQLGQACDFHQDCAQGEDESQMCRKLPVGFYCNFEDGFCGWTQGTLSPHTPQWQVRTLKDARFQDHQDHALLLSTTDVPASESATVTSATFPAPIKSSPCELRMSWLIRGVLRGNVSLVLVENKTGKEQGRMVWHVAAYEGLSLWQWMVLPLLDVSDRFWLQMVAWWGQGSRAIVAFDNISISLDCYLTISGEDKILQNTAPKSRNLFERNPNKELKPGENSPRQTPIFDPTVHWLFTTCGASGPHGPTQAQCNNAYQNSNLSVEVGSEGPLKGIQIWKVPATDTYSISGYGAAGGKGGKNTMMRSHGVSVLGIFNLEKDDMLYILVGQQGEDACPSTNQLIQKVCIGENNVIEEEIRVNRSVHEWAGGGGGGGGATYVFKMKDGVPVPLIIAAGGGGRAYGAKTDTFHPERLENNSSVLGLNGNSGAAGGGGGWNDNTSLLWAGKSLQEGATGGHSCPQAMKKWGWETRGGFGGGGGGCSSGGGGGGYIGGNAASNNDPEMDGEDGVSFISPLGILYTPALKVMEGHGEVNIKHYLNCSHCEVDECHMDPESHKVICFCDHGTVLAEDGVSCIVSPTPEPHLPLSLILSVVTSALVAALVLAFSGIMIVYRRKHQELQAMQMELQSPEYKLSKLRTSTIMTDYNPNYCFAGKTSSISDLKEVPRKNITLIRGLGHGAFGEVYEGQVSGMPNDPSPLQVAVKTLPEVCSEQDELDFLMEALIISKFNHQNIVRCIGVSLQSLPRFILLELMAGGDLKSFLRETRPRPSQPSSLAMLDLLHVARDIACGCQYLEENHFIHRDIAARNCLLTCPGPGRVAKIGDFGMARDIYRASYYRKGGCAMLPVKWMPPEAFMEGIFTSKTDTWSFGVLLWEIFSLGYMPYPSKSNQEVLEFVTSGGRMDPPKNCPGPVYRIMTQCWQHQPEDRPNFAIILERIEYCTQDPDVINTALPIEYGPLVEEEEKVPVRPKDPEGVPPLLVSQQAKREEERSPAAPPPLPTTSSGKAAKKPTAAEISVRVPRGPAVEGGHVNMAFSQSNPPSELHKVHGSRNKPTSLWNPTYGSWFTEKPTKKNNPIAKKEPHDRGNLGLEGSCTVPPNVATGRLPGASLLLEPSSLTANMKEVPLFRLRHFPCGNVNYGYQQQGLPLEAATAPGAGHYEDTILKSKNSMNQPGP
T1 sequence (P08069 31-1367): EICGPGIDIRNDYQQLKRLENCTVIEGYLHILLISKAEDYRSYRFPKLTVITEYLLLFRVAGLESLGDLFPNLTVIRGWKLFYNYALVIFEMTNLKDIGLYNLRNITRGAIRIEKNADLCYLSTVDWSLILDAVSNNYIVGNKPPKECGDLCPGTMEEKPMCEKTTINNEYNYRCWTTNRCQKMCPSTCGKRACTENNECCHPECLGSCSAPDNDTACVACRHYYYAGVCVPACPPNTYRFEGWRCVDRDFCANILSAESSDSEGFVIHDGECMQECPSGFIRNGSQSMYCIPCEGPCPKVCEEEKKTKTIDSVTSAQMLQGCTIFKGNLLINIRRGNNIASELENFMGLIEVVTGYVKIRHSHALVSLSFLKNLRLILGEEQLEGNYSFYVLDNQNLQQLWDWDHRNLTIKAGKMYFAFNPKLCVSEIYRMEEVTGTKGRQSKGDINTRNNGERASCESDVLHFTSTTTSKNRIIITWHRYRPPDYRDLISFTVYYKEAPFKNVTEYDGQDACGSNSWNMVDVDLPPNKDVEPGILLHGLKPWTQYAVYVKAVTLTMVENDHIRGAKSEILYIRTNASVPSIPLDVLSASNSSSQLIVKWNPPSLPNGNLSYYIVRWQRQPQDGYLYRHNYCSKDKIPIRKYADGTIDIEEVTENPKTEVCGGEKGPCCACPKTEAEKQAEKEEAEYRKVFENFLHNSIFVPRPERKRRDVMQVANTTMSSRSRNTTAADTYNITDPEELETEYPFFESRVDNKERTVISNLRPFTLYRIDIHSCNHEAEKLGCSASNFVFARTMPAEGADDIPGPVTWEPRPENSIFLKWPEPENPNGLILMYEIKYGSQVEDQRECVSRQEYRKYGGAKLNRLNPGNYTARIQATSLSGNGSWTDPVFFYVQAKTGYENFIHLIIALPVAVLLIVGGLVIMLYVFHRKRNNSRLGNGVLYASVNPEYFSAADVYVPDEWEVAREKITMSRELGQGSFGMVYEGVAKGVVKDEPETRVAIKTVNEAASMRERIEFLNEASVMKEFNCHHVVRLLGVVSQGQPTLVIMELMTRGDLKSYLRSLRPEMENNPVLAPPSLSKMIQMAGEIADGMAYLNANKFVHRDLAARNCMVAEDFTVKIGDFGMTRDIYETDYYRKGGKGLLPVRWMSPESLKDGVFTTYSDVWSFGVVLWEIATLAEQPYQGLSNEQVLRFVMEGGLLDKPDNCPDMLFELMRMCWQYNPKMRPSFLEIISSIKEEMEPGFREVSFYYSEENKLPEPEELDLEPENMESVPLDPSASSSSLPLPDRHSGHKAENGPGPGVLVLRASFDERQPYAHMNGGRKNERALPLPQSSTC

Row | Compound | IC50 (ALK) [nM] | IC50 (NCI-H929) [nM] | IC50 (Colo205) [nM] | IC50 [1] [nM]
1 | COc1cc2c(cc1Nc1nc(Nc3cccc(F)c3C(N)=O)c3cc[nH]c3n1)N(C(=O)CN1CCCCC1)CCC2 [Example 218, 2-fluoro-6-[(2-{[6-(methyloxy)-1-(1-piperidinylacetyl)-1,2,3,4-tetrahydro-7-quinolinyl]amino}-1H-pyrrolo[2,3-d]pyrimidin-4-yl)amino]benzamide] | 0.251 to 1 | < 250 | < 250 | < 100
2 | COc1cc2c(cc1Nc1nc(Nc3cc(F)cc(F)c3C(N)=O)c3cc[nH]c3n1)N(C(=O)CN1CCCC1)CCC2 [Example 219, 2,4-difluoro-6-[(2-{[6-(methyloxy)-1-(1-pyrrolidinylacetyl)-1,2,3,4-tetrahydro-7-quinolinyl]amino}-1H-pyrrolo[2,3-d]pyrimidin-4-yl)amino]benzamide] | 0.251 to 1 | < 250 | < 250 | < 100
3 | COc1cc2c(cc1Nc1nc(Nc3cc(F)cc(F)c3C(N)=O)c3cc[nH]c3n1)NCCC2 [Example 220, 2,4-difluoro-6-[(2-{[6-(methyloxy)-1,2,3,4-tetrahydro-7-quinolinyl]amino}-1H-pyrrolo[2,3-d]pyrimidin-4-yl)amino]benzamide] | 5.01 to 200 | > 1000 | > 1000 | 100 to 500
4 | CNC(=O)c1c(F)cc(F)cc1Nc1nc(Nc2cc3c(cc2OC)CCCN3C(=O)CN2CCCC2)nc2[nH]ccc12 [Example 221, 2,4-difluoro-N-methyl-6-[(2-{[6-(methyloxy)-1-(1-pyrrolidinylacetyl)-1,2,3,4-tetrahydro-7-quinolinyl]amino}-1H-pyrrolo[2,3-d]pyrimidin-4-yl)amino]benzamide] | 1.26 to 3.98 | < 250 | 250 to 1000 | < 100
5 | CNC(=O)c1c(F)cccc1Nc1nc(Nc2cc3c(cc2OC)CCC(=O)N3)nc2[nH]ccc12 [Example 222, 2-fluoro-N-methyl-6-[(2-{[6-(methyloxy)-2-oxo-1,2,3,4-tetrahydro-7-quinolinyl]amino}-1H-pyrrolo[2,3-d]pyrimidin-4-yl)amino]benzamide] | 5.01 to 200 | 250 to 1000 | > 1000 | > 500
6 | COc1cc2c(cc1Nc1nc(Nc3cccc(F)c3C(N)=O)c3cc[nH]c3n1)CN(C(=O)CCN1CCN(C(C)C)CC1)CC2 [Example 229, 2-fluoro-6-[(2-{[2-{3-[4-(1-methylethyl)-1-piperazinyl]propanoyl}-6-(methyloxy)-1,2,3,4-tetrahydro-7-isoquinolinyl]amino}-1H-pyrrolo[2,3-d]pyrimidin-4-yl)amino]benzamide] | 5.01 to 200 | 250 to 1000 | > 1000 | > 500

More lines, now with the values ahead:

Row | IC50 (ALK) [nM] | IC50 (NCI-H929) [nM] | IC50 (Colo205) [nM] | IC50 [1] [nM] | Compound
7 | 5.01 to 200 | 250 to 1000 | > 1000 | > 500 | COc1cc2c(cc1Nc1nc(Nc3cccc(F)c3C(N)=O)c3cc[nH]c3n1)CN(C(=O)CCN(C)C)CC2 [Example 230, 2-[(2-{[2-(N,N-dimethyl-β-alanyl)-6-(methyloxy)-1,2,3,4-tetrahydro-7-isoquinolinyl]amino}-1H-pyrrolo[2,3-d]pyrimidin-4-yl)amino]-6-fluorobenzamide]
8 | 5.01 to 200 | 250 to 1000 | > 1000 | 100 to 500 | COc1cc2c(cc1Nc1nc(Nc3cccc(F)c3C(N)=O)c3cc[nH]c3n1)CN(C(=O)CCN1CCOCC1)CC2 [Example 231, 2-fluoro-6-{[2-({6-(methyloxy)-2-[3-(4-morpholinyl)propanoyl]-1,2,3,4-tetrahydro-7-isoquinolinyl}amino)-1H-pyrrolo[2,3-d]pyrimidin-4-yl]amino}benzamide]
9 | 1.26 to 3.98 | < 250 | > 1000 | > 500 | COc1cc2c(cc1Nc1nc(Nc3cccc(F)c3C(N)=O)c3cc[nH]c3n1)CN(CCCN(C)C)CC2 [Example 232, 2-[(2-{[2-[3-(dimethylamino)propyl]-6-(methyloxy)-1,2,3,4-tetrahydro-7-isoquinolinyl]amino}-1H-pyrrolo[2,3-d]pyrimidin-4-yl)amino]-6-fluorobenzamide]
10 | 1.26 to 3.98 | < 250 | > 1000 | > 500 | CNC(=O)c1c(F)cccc1Nc1nc(Nc2cc3c(cc2OC)CCN(C(C)C)C3)nc2[nH]ccc12 [Example 235, 2-fluoro-N-methyl-6-[(2-{[2-(1-methylethyl)-6-(methyloxy)-1,2,3,4-tetrahydro-7-isoquinolinyl]amino}-1H-pyrrolo[2,3-d]pyrimidin-4-yl)amino]benzamide]
11 | 1.26 to 3.98 | 250 to 1000 | > 1000 | > 500 | CCC(C)N1CCc2cc(OC)c(Nc3nc(Nc4cccc(F)c4C(=O)NC)c4cc[nH]c4n3)cc2C1 (stereo not drawn) [Example 238, 2-fluoro-N-methyl-6-[(2-{[6-(methyloxy)-2-(1-methylpropyl)-1,2,3,4-tetrahydro-7-isoquinolinyl]amino}-1H-pyrrolo[2,3-d]pyrimidin-4-yl)amino]benzamide]
12 | 5.01 to 200 | > 1000 | > 1000 | 100 to 500 | CNC(=O)c1c(F)cccc1Nc1nc(Nc2cc(N(C)C(=O)CN(C)C)ccc2OC)nc2[nH]ccc12 [Example 242, 2-[(2-{[5-[(N,N-dimethylglycyl)(methyl)amino]-2-(methyloxy)phenyl]amino}-1H-pyrrolo[2,3-d]pyrimidin-4-yl)amino]-6-fluoro-N-methylbenzamide]
13 | 0.251 to 1 | < 250 | < 250 | < 100 | COc1ccc(NC(=O)CN(C)C)cc1Nc1nc(Nc2cccc(F)c2C(N)=O)c2cc[nH]c2n1 [Example 244, 2-[(2-{[5-[(N,N-dimethylglycyl)amino]-2-(methyloxy)phenyl]amino}-1H-pyrrolo[2,3-d]pyrimidin-4-yl)amino]-6-fluorobenzamide]
14 | 0.251 to 1 | 250 to 1000 | 250 to 1000 | 100 to 500 | CNC(=O)c1c(F)cccc1Nc1nc(Nc2cc3c(cc2OC)CCN3C(=O)CN(C)C)nc2[nH]cc(C)c12 [Example 258, 2-[(2-{[1-(N,N-dimethylglycyl)-5-(methyloxy)-2,3-dihydro-1H-indol-6-yl]amino}-5-methyl-1H-pyrrolo[2,3-d]pyrimidin-4-yl)amino]-6-fluoro-N-methylbenzamide]
15 | 5.01 to 200 | > 1000 | > 1000 | 100 to 500 | COc1cc2c(cc1Nc1nc(Nc3cccc(F)c3C(N)=O)c3cc(C)[nH]c3n1)N(C(=O)CN(C)C)CC2 [Example 262, 2-[(2-{[1-(N,N-dimethylglycyl)-5-(methyloxy)-2,3-dihydro-1H-indol-6-yl]amino}-6-methyl-1H-pyrrolo[2,3-d]pyrimidin-4-yl)amino]-6-fluorobenzamide]
